Measured values reported in patent US7687508B2, “Cyclic derivatives as modulators of chemokine receptor activity” (Bristol-Myers Squibb Company, priority 2006, dated 2010).

Columns and labels:
[1] = molecular target: T1, human CCR2 (Homo sapiens, UniProt P41597); assay: THP-1 binding (CCR2, 125I-human MCP-1 tracer); parameters: THP-1 human monocytic leukemic cell line, which expresses endogenous CCR2; endogenous in cells; host or cells: THP-1 human monocytic leukemia cells; details: metabolite examples; THP-1 cells, 125I-MCP-1
T1 sequence (P41597 1-360 isoform P41597-2): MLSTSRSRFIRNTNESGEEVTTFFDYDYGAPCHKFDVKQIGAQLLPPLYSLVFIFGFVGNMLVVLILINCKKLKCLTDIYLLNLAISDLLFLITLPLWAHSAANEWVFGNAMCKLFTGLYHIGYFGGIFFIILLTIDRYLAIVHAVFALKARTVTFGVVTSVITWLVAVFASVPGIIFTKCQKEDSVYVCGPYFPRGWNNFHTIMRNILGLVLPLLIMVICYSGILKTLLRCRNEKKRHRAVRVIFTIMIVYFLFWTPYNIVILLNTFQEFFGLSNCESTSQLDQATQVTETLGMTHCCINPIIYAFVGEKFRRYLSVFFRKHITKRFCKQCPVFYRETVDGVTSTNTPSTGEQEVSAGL
Protocol: The human CCR2 binding assay was also established with the THP-1 human monocytic leukemic cell line, which expresses endogenous CCR2, using 125I-human MCP-1 as the tracer ligand. Radioligand competition binding assays were used for assessment of binding affinity of test compounds to the CCR2 receptor. For radioligand competition studies, 100 μl containing 2.5×10^5 THP-1 cells/well (in assay buffer containing 50 mM HEPES, pH7.4, 5 mM MgCl2, 1 mM CaCl2 and 0.5% BSA) were added to 96-well assay plates containing test compound in 3-fold serial dilution, with final concentrations ranging from […]. Subsequently, 50 μl ^125I-MCP-1 radioligand at a final concentration of 0.2 nM in assay buffer were added to the reaction. After a 90 minute incubation period at room temperature, the binding reaction was terminated by harvesting on GF/B filter plates (PerkinElmer Cat. No. 6005177) followed by washing with ice-cold wash buffer (50 mM HEPES, pH 7.4, 0.1% BSA, 0.5 M NaCl) to remove unbound ligand. After washing, the plate was dried for 45 minutes at 60° C. followed by addition of 40 μl MicroScint 20 scintillation fluid, sealed and analyzed by the Packard TopCount reader. […] The competition data was plotted as a percentage inhibition of radioligand specific bound in the absence of test compound (percent of total signal). After correcting for non-specific binding, IC50 values were determined.

[2] = molecular target: T1, human CCR2; assay: Human peripheral blood mononuclear cell binding (CCR2 binding), 125I-human MCP-1 tracer; parameters: hPBMCs were isolated from human leukopak (Biological Specialty Inc.); endogenous in cells; host or cells: human peripheral blood mononuclear cells from leukopak (Biological Specialty Inc.); details: metabolite examples; hPBMCs, 125I-MCP-1; read-out: PBMC Binding IC50
Protocol: See also: Yoshimura et al., J. Immunol. 1990, 145, 292. The human CCR2 binding assay was established with human peripheral blood mononuclear cells (hPBMCs) using ^125I-human MCP-1 as the tracer ligand. hPBMCs were isolated from human leukopak (Biological Specialty Inc.) using a standard protocol with Ficoll-Hypaque (Mediatech Cellgro). Isolated hPBMCs were washed and diluted to 1×10^7/ml in binding buffer (RPMI-1640, 0.1% BSA, 20 mM Hepes, pH 7.4). ^125I-MCP-1 (NEN/Perk Elmer) was diluted to 0.45 nM in binding buffer. The compound was diluted in binding buffer at 3-fold the final concentrations used in the binding assay. The binding assay was performed using a 96-well filter plate (Millipore). Total ^125I-MCP-1 binding was assessed as follows: to each reaction of a total volume of 150 μl were added 5×10^5 cells, 0.15 nM […], and compound such that the final concentration ranged from 0 to 100 nM. The plate was incubated at room temperature for 30 minutes followed by three washes with RPMI-1640, 0.1% BSA, 0.4 M NaCl, 20 mM Hepes, pH 7.4 using a vacuum manifold filtration (Millipore). After washing, the plate was air-dried for 60 minutes at room temperature. This was followed by adding 25 μl of Microscint 20 into each well. The plate was sealed and counted on the Trilux for 1 minute. Non-specific binding was determined in the presence of 300 nM cold MCP-1 (PeproTech Inc.). Specific 1-MCP-1 was calculated as the difference between total and non-specific binding. All conditions were tested in duplicate.

CC(=O)N[C@@H]1C[C@H](N)CC[C@@H]1N1CC[C@H](Nc2ncnc3ccc(C(F)(F)F)cc23)C1=O [Example 4, N-((1R,2S,5R)-5-amino-2-((3S)-2-oxo-3-((6-(trifluoromethyl)-4-quinazolinyl)amino)-1-pyrrolidinyl)cyclohexyl)acetamide]
IC50 [1]: 4.22 ± 1.22 nM
IC50 [2]: 3.46 ± 1.1 nM
